From PubChem BioAssay AID1259407 (Chemical Carcinogenesis Research Information System (CCRIS), 2018)
Activity calls are given as the source filed them. The rule behind the calls is not given here.

Tested on: CCRIS mutagenicity, Ames/micronucleus/aberration tests
Experiment: CCRIS mutagenicity studies
[1] = Test System: AMES SALMONELLA TYPHIMURIUM, Strain/Indicator: TA98, Metabolic Activation: NONE, Method: PREINCUBATION
[2] = Test System: AMES SALMONELLA TYPHIMURIUM, Strain/Indicator: TA98, Metabolic Activation: RAT, LIVER, S-9, AROCLOR 1254, Method: STANDARD PLATE
[3] = Test System: AMES SALMONELLA TYPHIMURIUM, Strain/Indicator: TA100, Metabolic Activation: NONE, Method: PREINCUBATION
[4] = Test System: AMES SALMONELLA TYPHIMURIUM, Strain/Indicator: TA100, Metabolic Activation: NONE, Method: STANDARD PLATE

## c1ccoc1
End Point: In vitro micronucleus, Test System: Human lymphocytes, Metabolic Activation: None
  mutagenic call: inactive; negative
End Point: In vitro micronucleus, Test System: Human lymphocytes, Metabolic Activation: Rat, liver, S-9, Aroclor 1254
  mutagenic call: inactive; negative
End Point: In vitro micronucleus, Test System: Mouse lymphoma L5178Y cells, Metabolic Activation: None
  mutagenic call: inactive; negative
End Point: In vivo micronucleus, Test System: Peripheral blood erythrocytes, Species: Mouse, Strain/Sex: Balb/C/Male, Route: Intraperitoneal
  mutagenic call: inactive; negative
End Point: In vivo micronucleus, Test System: Peripheral blood erythrocytes, Species: Mouse, Strain/Sex: Balb/C/Male, Route: Subcutaneous
  mutagenic call: inactive; negative
Test System: AMES SALMONELLA TYPHIMURIUM, Strain/Indicator: TA98, Metabolic Activation: HAMSTER, LIVER, S-9, AROCLOR 1254 (10%), Method: PREINCUBATION
  mutagenic call: inactive; negative
[1]
  mutagenic call: inactive; negative
Test System: AMES SALMONELLA TYPHIMURIUM, Strain/Indicator: TA98, Metabolic Activation: RAT, LIVER, S-9, AROCLOR 1254 (10%), Method: PREINCUBATION
  mutagenic call: inactive; negative
[2]
  mutagenic call: inactive; negative
Test System: AMES SALMONELLA TYPHIMURIUM, Strain/Indicator: TA98, Metabolic Activation: S-9, Method: STANDARD PLATE
  mutagenic call: active; positive
Test System: AMES SALMONELLA TYPHIMURIUM, Strain/Indicator: TA100, Metabolic Activation: HAMSTER, LIVER, S-9, AROCLOR 1254 (10%), Method: PREINCUBATION
  mutagenic call: inactive; negative
[3]
  mutagenic call: inactive; negative
Test System: AMES SALMONELLA TYPHIMURIUM, Strain/Indicator: TA100, Metabolic Activation: RAT, LIVER, S-9, AROCLOR 1254 (10%), Method: PREINCUBATION
  mutagenic call: inactive; negative
Test System: AMES SALMONELLA TYPHIMURIUM, Strain/Indicator: TA100, Metabolic Activation: S-9, Method: STANDARD PLATE
  mutagenic call: inactive; negative
Test System: AMES SALMONELLA TYPHIMURIUM, Strain/Indicator: TA1535, Metabolic Activation: HAMSTER, LIVER, S-9, AROCLOR 1254 (10%), Method: PREINCUBATION
  mutagenic call: inactive; negative
Test System: AMES SALMONELLA TYPHIMURIUM, Strain/Indicator: TA1535, Metabolic Activation: NONE, Method: PREINCUBATION
  mutagenic call: inactive; negative
Test System: AMES SALMONELLA TYPHIMURIUM, Strain/Indicator: TA1535, Metabolic Activation: RAT, LIVER, S-9, AROCLOR 1254 (10%), Method: PREINCUBATION
  mutagenic call: inactive; negative
Test System: AMES SALMONELLA TYPHIMURIUM, Strain/Indicator: TA1537, Metabolic Activation: HAMSTER, LIVER, S-9, AROCLOR 1254 (10%), Method: PREINCUBATION
  mutagenic call: inactive; negative
Test System: AMES SALMONELLA TYPHIMURIUM, Strain/Indicator: TA1537, Metabolic Activation: NONE, Method: PREINCUBATION
  mutagenic call: inactive; negative
Test System: AMES SALMONELLA TYPHIMURIUM, Strain/Indicator: TA1537, Metabolic Activation: RAT, LIVER, S-9, AROCLOR 1254 (10%), Method: PREINCUBATION
  mutagenic call: inactive; negative
Test System: Mouse lymphoma, Strain/Indicator: L5178Y (tk+/tk-), Metabolic Activation: None, Method: Preincubation
  mutagenic call: inactive; negative

## CN(C)c1ccc(N=Nc2ccc(N(C)C)cc2)cc1
Test System: AMES SALMONELLA TYPHIMURIUM, Strain/Indicator: TA98, Metabolic Activation: RAT, LIVER, S-9, POLYCHLORINATED BIPHENYLS, Method: PREINCUBATION
  mutagenic call: inactive; negative
Test System: AMES SALMONELLA TYPHIMURIUM, Strain/Indicator: TA100, Metabolic Activation: RAT, LIVER, S-9, POLYCHLORINATED BIPHENYLS, Method: PREINCUBATION
  mutagenic call: inactive; negative

## O=C1C(=O)c2ccccc2-c2ccccc21
Test System: AMES SALMONELLA TYPHIMURIUM, Strain/Indicator: TA97A, Metabolic Activation: NONE, Method: PREINCUBATION
  mutagenic call: inactive; negative
[1]
  mutagenic call: inactive; negative
[3]
  mutagenic call: inactive; negative
Test System: AMES SALMONELLA TYPHIMURIUM, Strain/Indicator: TA102, Metabolic Activation: NONE, Method: PREINCUBATION
  mutagenic call: inactive; negative
Test System: AMES SALMONELLA TYPHIMURIUM, Strain/Indicator: TA104, Metabolic Activation: NONE, Method: PREINCUBATION
  mutagenic call: inactive; negative

## NC(=O)/N=N/C(N)=O
Test System: AMES SALMONELLA TYPHIMURIUM, Strain/Indicator: TA98, Metabolic Activation: HAMSTER, LIVER, S-9, AROCLOR 1254, Method: STANDARD PLATE
  mutagenic call: inactive; negative
Test System: AMES SALMONELLA TYPHIMURIUM, Strain/Indicator: TA98, Metabolic Activation: NONE, Method: STANDARD PLATE
  mutagenic call: inactive; negative
[2]
  mutagenic call: inactive; negative
Test System: AMES SALMONELLA TYPHIMURIUM, Strain/Indicator: TA100, Metabolic Activation: HAMSTER, LIVER, S-9, AROCLOR 1254, Method: STANDARD PLATE
  mutagenic call: active; positive
[4]
  mutagenic call: active; positive
Test System: AMES SALMONELLA TYPHIMURIUM, Strain/Indicator: TA100, Metabolic Activation: RAT, LIVER, S-9, AROCLOR 1254, Method: STANDARD PLATE
  mutagenic call: active; positive
Test System: MOUSE LYMPHOMA, Strain/Indicator: L5178Y (TK+/TK-), Metabolic Activation: NONE, Method: SUSPENSION/PLATE
  mutagenic call: inactive; negative. reevaluation of results: inconclusive
Test System: MOUSE LYMPHOMA, Strain/Indicator: L5178Y (TK+/TK-), Metabolic Activation: RAT, LIVER, S-9, AROCLOR 1254, Method: SUSPENSION/PLATE
  mutagenic call: inactive; negative. reevaluation of results: negative

## ClC(Cl)C(Cl)(Cl)Cl
End Point: IN VITRO CHROMOSOMAL ABERRATIONS, Test System: CHINESE HAMSTER LUNG FIBROBLAST CELLS (CHL/IU), Metabolic Activation: RAT, LIVER, S-9, PHENOBARBITAL AND 5,6-BENZOFLAVONE
  mutagenic call: inactive; negative
End Point: IN VITRO CHROMOSOMAL ABERRATIONS, Test System: CHINESE HAMSTER OVARY CELLS, Metabolic Activation: NONE
  mutagenic call: inactive; negative
End Point: IN VITRO CHROMOSOMAL ABERRATIONS, Test System: CHINESE HAMSTER OVARY CELLS, Metabolic Activation: RAT, LIVER, S-9, AROCLOR 1254
  mutagenic call: inactive; negative
Test System: MOUSE LYMPHOMA, Strain/Indicator: L5178Y (TK+/TK-), Metabolic Activation: NONE, Method: MICROWELL
  mutagenic call: active; positive
Test System: MOUSE LYMPHOMA, Strain/Indicator: L5178Y (TK+/TK-), Metabolic Activation: S-9, Method: MICROWELL
  mutagenic call: inactive; negative

## CC(C(=O)O)c1cccc(C(=O)c2ccccc2)c1 (stereo unspecified)
Test System: AMES SALMONELLA TYPHIMURIUM, Strain/Indicator: TA97A, Metabolic Activation: NONE, Method: STANDARD PLATE
  mutagenic call: inactive; negative
Test System: AMES SALMONELLA TYPHIMURIUM, Strain/Indicator: TA97A, Metabolic Activation: RAT, LIVER, S-9, PHENOBARBITAL, Method: STANDARD PLATE
  mutagenic call: inactive; negative
[4]
  mutagenic call: inactive; negative
Test System: AMES SALMONELLA TYPHIMURIUM, Strain/Indicator: TA100, Metabolic Activation: RAT, LIVER, S-9, PHENOBARBITAL, Method: STANDARD PLATE
  mutagenic call: inactive; negative
Test System: AMES SALMONELLA TYPHIMURIUM, Strain/Indicator: TA102, Metabolic Activation: NONE, Method: STANDARD PLATE
  mutagenic call: inactive; negative
Test System: AMES SALMONELLA TYPHIMURIUM, Strain/Indicator: TA102, Metabolic Activation: RAT, LIVER, S-9, PHENOBARBITAL, Method: STANDARD PLATE
  mutagenic call: inactive; negative

## C[C@@H]1O[C@@H]1c1ccccc1
Test System: AMES SALMONELLA TYPHIMURIUM, Strain/Indicator: TA98, Metabolic Activation: NONE, Method: PREINCUBATION (PHOSPHATE-BUFFERED KCL OR SOLUTE-FREE WATER MEDIA)
  mutagenic call: inactive; negative
Test System: AMES SALMONELLA TYPHIMURIUM, Strain/Indicator: TA100, Metabolic Activation: NONE, Method: PREINCUBATION (PHOSPHATE-BUFFERED KCL OR SOLUTE-FREE WATER MEDIA)
  mutagenic call: inactive; negative
Test System: AMES SALMONELLA TYPHIMURIUM, Strain/Indicator: TA104, Metabolic Activation: NONE, Method: PREINCUBATION (PHOSPHATE-BUFFERED KCL OR SOLUTE-FREE WATER MEDIA)
  mutagenic call: inactive; negative
Test System: CHINESE HAMSTER V-79, Strain/Indicator: V-79 (HPRT)/6-THIOGUANINE, Metabolic Activation: NONE
  mutagenic call: inactive; negative
